Experimental data published in the METLIN SMRT retention time set (Domingo-Almenara et al. 2019).

Assay: gradient 5% acetonitrile 3 min, to 50% in 2 min, to 85% in 15 min, held 3 min, 100 µL/min
Details: column: Zorbax Extend-C18 2.1 x 50 mm; eluents: water / acetonitrile, 0.1% formic acid
Procedure, shortened: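 Pure standards were analyzed in mixtures of ~100 molecules using HPLC coupled to a quadrupole time-of-flight mass spectrometer, in both positive and negative ionization mode. Separation used a Zorbax Extend-C18 column (2.1 × 50 mm, 1.8 μm) at 100 μL/min, with water and acetonitrile each containing 0.1% formic acid. Dead and dwell volumes were 40 μL and 900 μL, and data were collected over 3 months. Retention time was read from computationally picked adduct peaks, each inspected manually.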

Structure (SMILES) | RP-LC retention time
Cn1cc(CCNC(=O)Nc2ccc3c(c2)OCCO3)c2cccnc21 | 639 s
CCN1C(=O)c2cc(S(=O)(=O)Nc3ccc(C)cc3C)ccc2Oc2cccnc21 | 1080 s
Cc1ccc(N2CCN(C(=O)c3csc(C(=O)NC4CC4)n3)CC2)cc1 | 800 s
O=C(CCc1nc2ccccc2n(CC(=O)Nc2cc(F)cc(F)c2)c1=O)NCc1ccccc1 | 890 s
Cc1cc(C)cc(NC(=O)Cn2cc(C(=O)N3CCCC3)c(=O)c3ccc(C)nc32)c1 | 758 s
CC(C)n1c(=O)c(NCCc2ccccc2)nc2ccncc21 | 672 s
O=C(Cc1csc2nc(-c3ccccc3)cn12)NCCC1=CCCCC1 | 864 s
COc1cc(C(=O)N2CCC3(CC2)NC(=O)c2ccccc2N3C)cc(OC)c1OC | 669 s
COc1ccc(-c2nc(C3CC(=O)N(c4ccc(C)cc4)C3)no2)cn1 (stereo unspecified) | 946 s
O=C(NCCN1CCCCC1)C1CCc2sc(C(=O)N3CCCC3)cc2C1 (stereo unspecified) | 534 s
CCNC(=O)C1CCN(S(=O)(=O)c2cc(-c3noc(CC)n3)cs2)CC1 | 767 s
COC(=O)c1ccc2c(=O)n(Cc3ccc(OC)cc3)c(N3CCOCC3)nc2c1 | 943 s
O=C(C1CCN(c2nnc(-c3ccccc3)o2)CC1)N1CCN(c2ccccn2)CC1 | 602 s
COc1ccc(-c2c(C)noc2NC(C)=O)cc1S(=O)(=O)N1CCN(c2ccccn2)CC1 | 612 s
c1nc(N2CCOCC2)c2cn[nH]c2n1 | 340 s
O=C(Nc1cccc([N+](=O)[O-])c1)C(=O)Nc1ccc2c(c1)N(C(=O)C1CC1)CCC2 | 883 s
CC(C)CNC(=O)CCc1ccc2nc(-c3ccccc3)[nH]c2c1 | 618 s
CSc1ccc(-c2nc3cc(C)ccn3c2Nc2ccc3c(c2)OCO3)cc1 | 748 s

Structure (SMILES) | RP-LC retention time
COc1ccc(-c2cccc(NC(C)=O)c2)nn1 | 645 s
Cc1ccc(-c2csc(NC(=O)c3sc(-c4ccccc4)nc3C)n2)cc1C | 1390 s
CCOC(=O)c1c(NC(=O)C2CCN(S(=O)(=O)Cc3ccccc3)CC2)sc2c1CCCC2 | 1340 s
CCS(=O)(=O)N1CC(=O)N(c2cc(Cl)ccc2C)C(C)(C(=O)NCc2ccccc2)C1 (stereo unspecified) | 919 s
COC(=O)c1cccc(NC(=O)NC(C)C(=O)N2CCc3ccccc32)c1 (stereo unspecified) | 792 s
NC(=O)c1cccn1Cc1ccccc1Cl | 804 s
Cc1sc(NC(=O)c2ccccc2)c(C(Nc2ccccn2)c2cccs2)c1C (stereo unspecified) | 746 s
O=C([C@@H]1C[C@H](F)CN1S(=O)(=O)c1ccc(F)cc1F)N1CCOCC1 | 692 s
O=C(NC1CCN(c2cc(-c3ccccc3)[nH]n2)C1)c1ccoc1 (stereo unspecified) | 650 s
COc1ccc(OC)c(CNS(=O)(=O)c2cc(-c3cnn4c(C)cc(C)nc34)ccc2OC)c1 | 935 s
O=C(NCc1ccccc1Cl)C(=O)NCC1(CO)CC1 | 670 s
CCN(CC)c1nc2cc(C(=O)N3CCN(c4ccccn4)CC3)ccc2c(=O)n1-c1ccccc1 | 693 s
Cc1ccc(-n2ncc3c(C)nn(CC(=O)Nc4cc(C)on4)c(=O)c32)c(C)c1 | 775 s
COc1ncc(C(=O)NCc2ccc(C(F)(F)F)cc2)cn1 | 773 s
CC(=O)N1CCc2cc(N3CC(C(=O)N4CCN(c5ccccn5)CC4)CC3=O)ccc21 (stereo unspecified) | 566 s
CC(=O)N1CCC(CC(=O)N(C)CC2(C)CCOCC2)CC1 | 594 s
CCCN1CCN(CCCNC(=O)C2CCCN(c3nc4cccnc4s3)C2)CC1 (stereo unspecified) | 573 s
CS(=O)(=O)N1CCC(C(=O)Nc2ccc(Cl)c(C(F)(F)F)c2)Oc2ccccc21 (stereo unspecified) | 1020 s
